Test results as given in EP0114577A1, “New pharmaceutical composition” (MAGIS FARMACEUTICI S.p.A., priority 1983, dated 1984).

Test: Serum levels of radioactivity after administration of 14C-CDPC (liposomal suspension vs aqueous solution) to rats
Conditions: rat, in vivo, 200 mg/kg
Excerpt: Surprising results which are obtained orally administering carried-by-liposomes CDPC instead of utilizing hitherto known pharmaceutical compositions for oral administration are confirmed by data obtained by carrying out tests hereinbelow described. During the tests as pharmaceutical composition containing carried-by-liposomes CDPC, CDPC carried by means of a liposome having purified phosphatidylcholine from soybean as hydrophobic phase was utilized; said pharmaceutical composition will be called hereinafter Lip. CDPC for the sake of brevity. Moreover, during the hereinbelow describ ed tests, a marked CDPC was utilized having an atom of ^14C introduced into the methyl group of the cholinic side of the molecule. The radioactivity resulted to be about 0.1 µ Curie/mg pure CDPC.
The suspension of Lip. CDPC containing ^14C-CDPC, which was obtained as described in Example No. 1, and a ' reference aqueous solution of ^14C-CDPC were administered by gavage to rats of average weight of 200 g at the doses of 200 mg/Kg (referred to pure CDPC).
Blood abstractions were carried out at various intervals of time and, 24 hours after the start of test, the animals were sacrificed. Amounts of absorbed active ingredient were calculated from radioactivity measures on serum; said amounts, as reported in following Tables (1 - 2), were higher on the average in tests carried out employing Lip. CDPC in comparison with controls with pure CDPC in aqueous solution. It is apparent from the analysis of Tables that, in the described experimental conditions, there is a valuable absorption of CDPC after oral administration. The amount of said absorption and pertinent hematic concentrations are remarkably higher when Lip. CDPC, which is object of the present invention, is used: for example at the 6th hour the serum concentration of CDPC for Lip. CDPC was much higher than concentration found for CDPC administered in aqueous solution.

SMILES: C[N+](C)(C)CCOP(=O)(O)OP(=O)([O-])OC[C@H]1O[C@@H](n2ccc(N)nc2=O)[C@H](O)[C@@H]1O [CDPC, cytidine diphosphate choline ester]
- Serum concentration (0 min): 0 CPM x 10^-3
- Serum concentration (60 min): 0.3 CPM x 10^-3
- Serum concentration (120 min): 1 CPM x 10^-3
- Serum concentration (300 min): 2.6 CPM x 10^-3
- Serum concentration (600 min): 4 CPM x 10^-3
- Serum concentration (900 min): 4 CPM x 10^-3
